Results on four substances are retold here after patent US8293528B2, “Peptide compositions and their use in particular in the preparation of pharmaceutical compositions active against the hepatitis C virus” (priority 2002, dated 2012).

The subject of one test is HLA-A2.1-transgenic mice. In words: CTL test after immunization with peptides/compositions/epitopes. The test is classed as in vivo. The following applies: FIG. 10; 18 nmoles of D peptide versus 60 nmoles of ALY epitope, ALY epitope as target. How it is done:
In order to do this, 2 sub-cutaneous injections were administered into the base of the tail of each mouse, with an interval of 15 days, of a mixture containing 18 nmoles of peptide of the invention and 18 nmoles of the HBV core helper peptide in incomplete Freund's adjuvant (IFA, Brinster et al., Hepatology 2001) or containing 60 nmoles of epitope of the invention and 60 nmoles of the helper peptide in IFA.
The control mice received only the helper peptide in IFA.
Fifteen days after the 2nd injection, the cell response was analyzed by isolating the spleen cells (splenocytes) of mice and a CTL test and an ELISPOT test were carried out as follows:
For the CTL test, these splenocytes were cultured in 24-well plates in the presence of 5 μM of the peptide or epitope of interest and 10 U of recombinant murine interleukin-2 (Brinster et al., Hepatology 2001) per ml in alpha minimum essential medium (αMEM) for 5 days. […] The specific cytotoxic activity of the effective cells was determined by measuring, after 4 hours of incubation with the target cells, the Cr^51 released following the lysis of the target cells using a γ-Cobra II (Packard, Rungis, France) counting device. The spontaneous and maximum release from wells containing either the medium alone, or the lysis buffer (HCl 1N) were determined. […]

Test [1] concerns blood cells from 3 patients infected by the hepatitis C virus of genotype 1 and having an HLA of type HLA-A2+. The following applies: ELISPOT, 48 hours, positive if more than 20 spots per well. How it is done:
The ability of blood cells from 3 patients infected by the hepatitis C virus of genotype 1 and having an HLA of type HLA-A2+ to produce gamma-interferon cytokines and interleukin-10, in response to two peptides predicted by software developed by bioMerieux (Centre d'Immunologie de Pierre Fabre) to bind to the HLA-A2 molecule was tested.
The assay of these cytokines reflects the ability of the peptides to induce immune responses to cell mediation, either of type 1 (gamma interferon), or of type 2 (interleukin-10)
After 48 hours of incubation at 37° C., a period during which the cells specific to the peptides will locally produce cytokines which will bind to the specific antibodies, anti-gamma interferon or anti-interleukin-10 antibodies, alkaline phosphatase coupled to avidine and the alkaline phosphatase substrate (NBT/BCIP) were added.
The violet-blue spots, which represent each gamma-interferon or interleukin-10-producing cell were counted, using Zeiss's ELISPOT automated reader (KS Elispot) and only considered positive when the number of spots per well was greater than 20.

Test [2] concerns Mice transgenic for the molecule HLA.A2.1. The test is described as follows: ELISPOT after immunization of transgenic mice with predicted epitopes. The following applies: three individual mice; two injections of epitope 60 μM + T-helper peptide in IFA; two weeks after last immunization. The test is classed as in vivo. On the procedure: Mice transgenic for the molecule HLA.A2.1 and devoid of murine class 1 molecules (Pascolo S., et al., 1997, J. Exp Med., 185: 2043-2051) were immunized with the FLL and ILA epitopes predicted as being class I epitopes restricted by the molecule HLA.A2.1.
In order to do this, the mice were immunized in the base of their tails with a peptide mixture containing one of the above epitopes (60 μM) and the T-helper peptide (Lone, Y. C. et al., (1998), J. Immunother. 21:283-294) (60 μM) emulsified in incomplete Freund's adjuvant (Sigma St Louis, Mo.). The mice received two injections with an interval of two weeks and the immune responses were analyzed two weeks after the last immunization as indicated in Example 1 (Elispot).

Several values for one entry are separate records, joined by “and”; a condition that tells them apart may be missing. Identical values can stand only once.

In the case of “D peptide: D peptide of sequence SEQ ID NO: 176, in NS5b between positions 2573 and 2601 of the viral polyprotein”, in the test with HLA-A2.1-transgenic mice, the lysis effectiveness result was “identical lysis effectiveness”.
In the case of FLATCVNGV, in test [1], the “production of gamma interferon” value is recorded as “little if any production” and the “production of interleukin-10” value is “little if any production”.
As to ILAGYAGAGV, in test [2], the “Number of spots/10^6 cells (gamma-interferon-producing cells)” value was 5 spots/10^6 cells and 2 spots/10^6 cells and 0 spots/10^6 cells.
In the case of LLGCIITSL, in test [1], the “production of gamma interferon” value was “significant production of gamma interferon in 2 of the 3 patients” and the “production of interleukin-10” value was “significant production”.
